Values after ≈ are worked out from the molar mass of the structure shown.

Data set [1] can be described thus: DPPH radical scavenging assay. In kind it is biochemical. The protocol: DPPH scavenging potential of samples was determined with a slightly modified method[47]^,[48]. Each sample was prepared at 500 ppm. Serial concentrations of samples were prepared (200 µL, 400 µL and 800 µL). Methanol was added to complete the total volume to 1 mL and all the samples were vortexed well. 1 mL of 0.1 mM DPPH methanolic solution was added to each diluted sample. All the samples were vortexed again, then left to stand for 30 min in the dark at environment temperature. The absorption of the developed colour appeared against the blank reagent was measured at 517 nm using a spectrophotometer. BHT was used as a standard antioxidant. The capability to scavenge DPPH radical was estimated using the following equation: DPPH scavenging ability (% inhibition)=[(A0−A*)/A0]×100
A0 is Control absorption and A* is sample absorption.
(In general: Loss of DPPH colour is used to gauge radical scavenging.)

Data set [2] has as its system RAW 264.7 cells. Nature of the data set: MTT cytotoxicity against RAW 264.7 macrophage cells. In kind it is cell-based. Conditions: RAW 264.7, MTT. The protocol:
The macrophage cell line, RAW 264.7 was obtained from the ATCC (American type culture collection). The cells were cultured in RPMI 1640 medium (Roswell Park Memorial Institute) and supplemented with 1% pen/strep and 10% heat-inactivated foetal bovine serum. The cells were incubated, in a humidified incubator, in an atmosphere of 5% CO2 at 37 °C and were subculture twice before the experiment.
(§1) RAW 264.7 cells were suspended in a RPMI medium. After 24 h of seeding 1 × 10^5 cells per well (in 96 well plates) and incubated for 24 h for the experiments. The cells were then treated with the samples at concentrations of 100, 50, 25 and 12.5 μg/mL and incubated for 1 h. They were then stimulated with 10 μg/mL of LPS for another 24 h. The supernatant was gently transferred to new 96-well plates and used for NO determination, while the cells that remained in the old plate were used for the MTT assay of cell viability. Samples (stock) were dissolved in DMSO, and the working samples were prepared in the media. Cell viability was assessed by the mitochondrial dependent reduction of yellow MTT (3–(4,5-dimethylthiazol-2-yl)-2,5-diphenyltetrazolium bromide) to purple formazan.
The percentage of change in viability was calculated according to the formula: [(Reading of extract /Reading of negative control )−1]×100.

Data set [3] relates to LPS-stimulated NO production by RAW 264.7 macrophages. Nature of the data set: Nitric oxide assay (Griess) in LPS-induced RAW 264.7 macrophages. The following applies: Mus musculus; for IC50: RAW264.7, LPS-induced RAW 264.7, read-out: NO inhibition IC50; for inhibition at 12.5 µg/mL / inhibition at 25 µg/mL / inhibition at 50 µg/mL / inhibition at 100 µg/mL: RAW264.7, LPS 10 µg/mL, read-out: NO % inhibition (mean ± SEM). Type of data set: cell-based. How it is done: as §1
Nitric oxide production was assayed by measuring nitrite in the supernatants of cultured LPS-RAW 264.7 cells. The assay was carried out as described previously with slight modification[48]^,[50]. After pre-incubation of RAW 264.7 cells (1 × 10^5 cells/mL) with LPS (10 µg/mL) for 24 h, the amount of nitrite, a stable metabolite of NO used as an indicator of NO production in the culture medium was measured using the Griess reagent (1% sulphanilamide and 0.1% naphthyl ethylenediamine dihydrochloride in 2.5% phosphoric acid). A volume of 50 µL of the cell culture medium was mixed with 50 µL of the Griess reagent. Subsequently, the mixture was incubated at room temperature for 15 min and the absorbance was measured at 540 nm by a microplate reader. Fresh culture medium was used as a blank in every experiment. The quantity of nitrite was determined from a sodium nitrite standard curve as expressed in the equation. Nitric oxide inhibition (%)=(optical denisty of control−optical denisty of test /optical denisty of control ) ×100.
Background: Nitrite, measured by Griess reagent, commonly stands in for NO production.

What is called melting point is the temperature, or range, at which the solid turns liquid. In turn, `NNc1ncnc2c1c(-c1ccccc1)cn2-c1cccc(Cl)c1` [2a, (7–(3-Chlorophenyl)-5-phenyl-7H-pyrrolo[2,3-d]pyrimidin-4-yl)-hydrazine] came in with a melting point of 204 to 206 °C.
Same read-out and setting: the figure for `NNc1ncnc2c1c(-c1ccccc1)cn2-c1ccc(Cl)cc1` [2b, (7–(4-Chlorophenyl)-5-phenyl-7H-pyrrolo[2,3-d]pyrimidin-4-yl)-hydrazine] is 217 to 219 °C.
One may read the IC50 as the concentration that gives 50% inhibition. By inhibition is commonly meant the change of the read-out against control, counted positive when it falls. The compound `Clc1cccc(-n2cc(-c3ccccc3)c3c2ncn2cnnc32)c1` [3a, 7–(3-Chlorophenyl)-9-phenyl-7H-pyrrolo[3,2-e][1,2,4]triazolo[4,3-c] pyrimidine] had a melting point of 176 to 178 °C. The “DPPH radical-scavenging IC50” value in data set [1] was 160.05 µg/mL. Besides, the “DPPH % Inhibition (mean ± SEM)” value in data set [1] (conc. 100 (µg/mL)) is recorded as 39.56 ± 0.88%. Further, the “DPPH % Inhibition (mean ± SEM)” value in data set [1] (conc. 200 (µg/mL)) is listed as 58.09 ± 1.50%. The “DPPH % Inhibition (mean ± SEM)” value in data set [1] (conc. 400 (µg/mL)) is 62.51 ± 0.32%. Also, the “Cytotoxicity of raw cells% (mean ± SEM)” value in data set [2] (12.5 µg/mL) is on record as 0%. Further, the “Cytotoxicity of raw cells% (mean ± SEM)” value in data set [2] (25 µg/mL) amounted to 76.5 ± 1.9%. The “Cytotoxicity of raw cells% (mean ± SEM)” value in data set [2] (50 µg/mL) was 78.7 ± 2.2%. Also, the “Cytotoxicity of raw cells% (mean ± SEM)” value in data set [2] (100 µg/mL) turned out to be 92.0 ± 1.6%. In data set [3], the IC50 was 57.3 µg/mL (≈ 166 µM), the inhibition at 12.5 µg/mL was 40.6 ± 2.6%, the inhibition at 25 µg/mL was determined as 53.1 ± 1.3% and the inhibition at 50 µg/mL is 62.5 ± 1.2%. Also, the inhibition at 100 µg/mL in data set [3] turned out to be 65.6 ± 1.2%.
The compound `Clc1ccc(-n2cc(-c3ccccc3)c3c2ncn2cnnc32)cc1` [3b, 7–(4-Chlorophenyl)-9-phenyl-7H-pyrrolo[3,2-e][1,2,4]triazolo[4,3-c] pyrimidine] yielded a melting point of 190 to 192 °C.
As to `S=c1[nH]nc2c3c(-c4ccccc4)cn(-c4ccc(Cl)cc4)c3ncn12` [4b, 7–(4-Chlorophenyl)-9-phenyl-7H-pyrrolo[3,2-e][1,2,4]triazolo[4,3-c]pyramid in-3-thione], the melting point is 187 to 189 °C. Also, the “DPPH radical-scavenging IC50” value in data set [1] was found to be 129.38 µg/mL. In addition, the “DPPH % Inhibition (mean ± SEM)” value in data set [1] (conc. 100 (µg/mL)) is listed as 37.97 ± 0.71%. For the same compound, the “DPPH % Inhibition (mean ± SEM)” value in data set [1] (conc. 200 (µg/mL)) is listed as 77.76 ± 1.60%. Also, in data set [1] (conc. 400 (µg/mL)), the “DPPH % Inhibition (mean ± SEM)” value is recorded as 79.55 ± 1.06%. Further, in data set [2] (12.5 µg/mL), the “Cytotoxicity of raw cells% (mean ± SEM)” value came to 0%. The “Cytotoxicity of raw cells% (mean ± SEM)” value in data set [2] (25 µg/mL) is listed as 69.6 ± 1.3%. In data set [2] (50 µg/mL), the “Cytotoxicity of raw cells% (mean ± SEM)” value turned out to be 75.2 ± 2.5%. Moreover, the “Cytotoxicity of raw cells% (mean ± SEM)” value in data set [2] (100 µg/mL) is recorded as 85.4 ± 0.6%. Further, in data set [3], the IC50 amounted to 64.8 µg/mL (≈ 171 µM), the inhibition at 12.5 µg/mL is 39.8 ± 1.9%, the inhibition at 25 µg/mL came out at 52.8 ± 1.1% and the inhibition at 50 µg/mL was 54.3 ± 1.6%. The inhibition at 100 µg/mL in data set [3] was found to be 58.1 ± 3.5%.
Turning to `Cc1nnc2c3c(-c4ccccc4)cn(-c4cccc(Cl)c4)c3ncn12` [5a, 7–(3-Chlorophenyl)-3-methyl-9-phenyl-7H-pyrrolo[3,2-e][1,2,4]triazolo[4,3-c] pyrimidine], the melting point was 227 to 229 °C.
Regarding `Cc1nnc2c3c(-c4ccccc4)cn(-c4ccc(Cl)cc4)c3ncn12` [5b, 7–(4-Chlorophenyl)-3-methyl-9-phenyl-7H-pyrrolo[3,2-e][1,2,4]triazolo[4,3-c] pyrimidine], the melting point lay in the range of 201 to 203 °C.
Same read-out and setting: the figure for `O=c1[nH]nc2c3c(-c4ccccc4)cn(-c4cccc(Cl)c4)c3ncn12` [6a, 7–(3-Chlorophenyl)-9-phenyl-7H-pyrrolo[3,2-e][1,2,4]triazolo[4,3-c]pyrimidin-3-one] is 226 to 228 °C; for `O=c1[nH]nc2c3c(-c4ccccc4)cn(-c4ccc(Cl)cc4)c3ncn12` [6b, 7–(4-Chlorophenyl)-9-phenyl-7H-pyrrolo[3,2-e][1,2,4]triazolo[4,3-c]pyrimidin-3-one] it is 233 to 235 °C; for `Cc1cc(C)n(-c2ncnc3c2c(-c2ccccc2)cn3-c2cccc(Cl)c2)n1` [7a, 7–(3-Chlorophenyl)-4–(3,5-dimethyl-pyrazol-1-yl)-5-phenyl-pyrrolo[2,3-d]pyrimidine] it is 180 to 182 °C.
On the same count and under the same terms, the figure for `Cc1cc(C)n(-c2ncnc3c2c(-c2ccccc2)cn3-c2ccc(Cl)cc2)n1` [7b, 7–(4-Chlorophenyl)-4–(3,5-dimethyl-pyrazol-1-yl)-5-phenyl-pyrrolo[2,3-d]pyrimidine] is 199 to 201 °C; for `Clc1cccc(-n2cc(-c3ccccc3)c3c(N/N=C/c4ccccc4)ncnc32)c1` [8a, N-[(E)-benzylideneamino]-7–(3-chlorophenyl)-5-phenyl-pyrrolo[2,3-d]pyrimidin-4-amine] it is 187 to 189 °C; for `Clc1ccc(-n2cc(-c3ccccc3)c3c(N/N=C/c4ccccc4)ncnc32)cc1` [8b, N-[(E)-benzylideneamino]-7–(4-chlorophenyl)-5-phenyl-pyrrolo[2,3-d]pyrimidin-4-amine] it is 172 to 174 °C.
The same measure, in the same setting: the figure for `Clc1ccc(/C=N/Nc2ncnc3c2c(-c2ccccc2)cn3-c2cccc(Cl)c2)cc1` [8c, 7–(3-Chlorophenyl)-N-[(E)-(4-chlorophenyl)methyleneamino]-5-phenyl-pyrrolo[2,3-d]pyrimidin-4-amine] is 247 to 249 °C.
The compound `Clc1ccc(/C=N/Nc2ncnc3c2c(-c2ccccc2)cn3-c2ccc(Cl)cc2)cc1` [8d, 7–(4-Chlorophenyl)-N-[(E)-(4-chlorophenyl)methyleneamino]-5-phenyl-pyrrolo[2,3-d]pyrimidin-4-amine] displayed a melting point of 187 to 189 °C.
Compound `COc1ccc(/C=N/Nc2ncnc3c2c(-c2ccccc2)cn3-c2cccc(Cl)c2)cc1` [8e, 7–(3-Chlorophenyl)-N-[(E)-(4-methoxyphenyl)methyleneamino]-5-phenyl-pyrrolo[2,3-d]pyrimidin-4-amine] had a melting point of 167 to 169 °C. In data set [1], the “DPPH radical-scavenging IC50” value is listed as 122.07 µg/mL. The “DPPH % Inhibition (mean ± SEM)” value in data set [1] (conc. 100 (µg/mL)) is 40.63 ± 2.13%. Further, the “DPPH % Inhibition (mean ± SEM)” value in data set [1] (conc. 200 (µg/mL)) is 82.15 ± 0.14%. Besides, the “DPPH % Inhibition (mean ± SEM)” value in data set [1] (conc. 400 (µg/mL)) was found to be 85.22 ± 0.17%. Moreover, the “Cytotoxicity of raw cells% (mean ± SEM)” value in data set [2] (12.5 µg/mL) stood at 0%. For the same compound, the “Cytotoxicity of raw cells% (mean ± SEM)” value in data set [2] (25 µg/mL) is reported as 65 ± 3.1%. For the same compound, the “Cytotoxicity of raw cells% (mean ± SEM)” value in data set [2] (50 µg/mL) is 73.1 ± 1.3%. Also, the “Cytotoxicity of raw cells% (mean ± SEM)” value in data set [2] (100 µg/mL) is 77.7 ± 1.5%. Moreover, in data set [3], the IC50 is ~53 µg/mL (≈ 117 µM), the inhibition at 12.5 µg/mL came to 38.7 ± 1.7%, the inhibition at 25 µg/mL was 66.5 ± 3.7% and the inhibition at 50 µg/mL was determined as 67.5 ± 1.8%. The inhibition at 100 µg/mL in data set [3] turned out to be 71.8 ± 1%.
As for `COc1ccc(/C=N/Nc2ncnc3c2c(-c2ccccc2)cn3-c2ccc(Cl)cc2)cc1` [8f, 7–(4-Chlorophenyl)-N-[(E)-(4-methoxyphenyl)methyleneamino]-5-phenyl-pyrrolo[2,3-d]pyrimidin-4-amine], the melting point lay within 194 to 196 °C.
With `Cc1cc(C(C)(C)C)c(O)c(C(C)(C)C)c1` [BHT, butylated hydroxytoluene, reference compound], in data set [1], the “DPPH radical-scavenging IC50” value amounted to 128.77 µg/mL. Further, the “DPPH % Inhibition (mean ± SEM)” value is 40.03 ± 0.39% in data set [1] (conc. 100 (µg/mL)), 76.81 ± 0.21% in data set [1] (conc. 200 (µg/mL)) and 90.07 ± 0.26% in data set [1] (conc. 400 (µg/mL)).

For the origin of these results see paper PMC9246196, “Novel pyrrolopyrimidine derivatives: design, synthesis, molecular docking, molecular simulations and biological evaluations as antioxidant and anti-inflammatory agents” (Journal of Enzyme Inhibition and Medicinal Chemistry, 2022).
